Results on nine molecules are retold here after PubChem BioAssay (NCI).

Molecules are shown by their SMILES.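 Where inhibition never reached the appropriate level, the endpoint shown equals the highest concentration tested. Otherwise, values were interpolated linearly from a five-concentration, 48-hour dose response in 96-well plates. TGI marks complete inhibition of growth.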

What all share (assay): inhibition of tumour cell growth, NCI panel, 48 h
Test [1] deals with SK-MEL-5 melanoma.
Test [2] relates to SW-620 colon.
The test system of test [3] is BT-549 breast.
Test [4] deals with MDA-N.
Test [5] deals with HOP-62 NSCLC.
The test system of test [6] is NCI-H460 lung.
Test [7] concerns 786-0 renal.
The subject of test [8] is OVCAR-3 ovarian.
The subject of test [9] is A498 renal.
Test [10] has as its system EKVX NSCLC.
Test [11] has as its system DU-145 prostate.
The subject of test [12] is RXF 393 renal.
Test [13] has as its system SK-OV-3 ovarian.
Test [14] deals with SR leukemia.
Test [15] deals with HL-60(TB) leukemia.
Test [16] concerns SF-539 CNS.

In the case of `CN1CCN(c2cc3nc(-c4ccc(Cl)cc4)[nH]c3cc2F)CC1`, the TGI is 35.5 µM in [1]; > 64.4 µM in test [2]; 31.1 µM in test [3]; 50.4 µM in [4]; 30.6 µM in [5]; > 53.9 µM in test [6]. Also, the TGI came to 67.2 µM in test [7]; 25.7 µM in test [8]; 47.4 µM in test [9]; 72.3 µM in test [10]; 83.3 µM in [11]; 30.9 µM in test [12]. Further, the TGI in test [13] was 59.5 µM; in test [14] it was > 100 µM.

On to `CCCCC(=O)/C=c1/cc(C)[nH]c2cccc3cnn1c32`, for which the TGI in [1], in [2], in test [3], in test [4], in test [5] and in [15] was > 100 µM each time. For the same molecule, the TGI in [7], in test [8], in test [9], in test [10], in [11] and in test [13] was > 100 µM throughout. Moreover, the TGI in [16] and in test [14] was > 100 µM each time.

For the molecule `O=C(OCc1ccccc1)C(Cc1ccc(OCc2ccccc2)cn1)NC(=O)C(F)(F)F` (stereo unspecified), the TGI in [1], in [2], in test [3], in test [4], in test [5] and in test [6] was > 100 µM throughout. Moreover, the TGI in test [15], in test [7], in [8], in [9], in [10] and in test [11] was > 100 µM in each case. Also, the TGI in test [12], in test [16] and in [14] was > 100 µM throughout.

Turning to `Cc1cc(N2CCOCC2)nc2ccc(Cc3ccc4nc(N5CCOCC5)cc(C)c4c3)cc12`, the TGI in test [1] is 36.6 µM; in test [2] it was > 100 µM; in test [3], > 100 µM; in test [4] it was > 100 µM; in [5], > 100 µM; in test [6], > 100 µM. The TGI in test [7], in test [8], in test [9], in test [10], in test [11] and in test [12] was > 100 µM throughout. Moreover, the TGI in test [13] is > 100 µM; in test [16] it was 71.3 µM; in [14] it was > 100 µM.

`CCc1n[nH]c(=O)n1CC`: the TGI in test [1], in test [2], in test [3], in test [4], in test [5] and in test [6] was > 100 µM in each case. In addition, the TGI in test [15], in test [7], in test [8], in [9], in test [10] and in test [11] was > 100 µM each time. The TGI in [13], in [16] and in test [14] was > 100 µM in each case.

Turning to `CC(C)(C)OC(=O)N(O)[C@@H]1CC[C@H](n2cnc3c(N)ncnc32)C1`, the TGI in test [1], in test [2], in [3], in test [4], in test [5] and in test [6] was > 100 µM each time. Besides, the TGI in [7], in test [8], in test [9], in test [10], in test [11] and in [12] was > 100 µM in each case. Also, the TGI in test [13], in test [16] and in test [14] was > 100 µM each time.

For the molecule `O=c1[nH]c(=O)c2c([nH]1)[nH]c1ccc(Br)cc12`, the TGI in test [1], in [2], in [3], in test [4], in [5] and in test [15] was > 100 µM in each case. For the same molecule, the TGI in [7] is > 100 µM; in test [9], > 100 µM; in [10], > 100 µM; in [11], > 100 µM; in [12], > 100 µM; in test [13], 56.4 µM. In addition, the TGI in [16] and in test [14] was > 100 µM each time.

For the molecule `Clc1cccc(-c2nc3cccc4c3n2Cc2ncccc2-4)c1`, the TGI in [2], in test [3], in test [4], in test [5], in test [6] and in test [7] was > 100 µM throughout. Moreover, the TGI in test [8], in test [9], in [10], in test [11], in [12] and in [13] was > 100 µM throughout. The TGI in test [16] and in [14] was > 100 µM throughout.

For `CCCCCCCCOC(=O)C12Oc3ccc(-c4ccc5c(c4O)C(O)=C4C(=O)CC(C)C(O)C4(C(=O)OCCCCCCCC)O5)c(O)c3C(O)=C1C(=O)CC(C)C2O` (stereo unspecified), the TGI is 48.7 µM in test [1]; > 100 µM in test [2]; 41.9 µM in test [3]; > 100 µM in test [4]; > 100 µM in test [6]; 9.61 µM in test [15]. The TGI in test [7] is > 100 µM; in test [8] it was > 100 µM; in test [9], > 100 µM; in [10], > 100 µM; in test [11] it was > 100 µM; in test [12] it was 11.3 µM. Also, the TGI was > 100 µM in [13], 19.7 µM in test [16] and 20.3 µM in test [14].
